Measurements: US10987359B2, “Oxadiazepinone derivatives and methods of treating hepatitis B infections” (priority 2016, dated 2021)

system: HBV; assay: HBV replication inhibition assay (BDNA assay) in HepG2.2.15 cells; assay type: cell-based; conditions: HBV replication assay (BDNA assay), HepG2.2.15 cells; read-out: DNA EC50
How it was run: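 HepG2.2.15 cells with stably integrated HBV were treated with serially diluted compounds at 0.5% DMSO for 6 days, with medium and compound refreshed at day 3. Encapsidated HBV DNA from DNase-treated supernatant was quantified by branched DNA assay. EC50 came from % inhibition versus DMSO, fitted non-linearly.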

Question: Which EC50 does the source give for `Cc1cc(NC(=O)N2Cc3c(nn4c3C(=O)N(C)OC(CNCC(F)F)C4)C[C@H]2C)ccc1F` (stereo in doubt) [Compound 185_D2, (4R*,9R)-4-(((2,2-difluoroethyl)amino)methyl)-N-(4-fluoro-3-methylphenyl)-2,9-dimethyl-1-oxo-1,4,5,8,9,11-hexahydropyrido[4′,3′:3,4]pyrazolo[5,1-d][1,2,5]oxadiazepine-10(2H)-carboxamide] here?
Answer: 1 to 100 nM

same assay, conditions: Hepatitis B virus, HepG2.2.15, HBV replication assay (BDNA assay), HepG2.2.15 cells; read-out: DNA EC50

Question: For `CN1O[C@H](CNCC(F)F)Cn2nc3c(c2C1=O)CN(C(=O)Nc1ccc(F)c(C(F)(F)F)c1)CC3` (stereo in doubt) [Compound 194_E1, (S*)-4-4(2,2-difluoroethyl)amino)methyl)-N-(4-fluoro-3-(trifluoromethyl)phenyl)-2-methyl-1-oxo-1,4,5,8,9,11-hexahydropyrido[4′,3′:3,4]pyrazolo[5,1-d][1,2,5]oxadiazepine-10(2H)-carboxamide], which EC50 is on record?
Answer: 1 to 100 nM

Question: With `CN1OC(CO)Cn2nc3c(c2C1=O)CN(C(=O)Nc1cccc(Br)c1)CC3` (stereo not drawn) [Compound 001, N-(3-bromophenyl)-4-(hydroxymethyl)-2-methyl-1-oxo-1,4,5,8,9,11-hexahydropyrido[4′,3′:3,4]pyrazolo[5,1-d][1,2,5]oxadiazepine-10(2H)-carboxamide] as the compound, how does the EC50 read?
Answer: 1 to 100 nM

Question: `Cc1cccc(NC(=O)N2CCc3nn4c(c3C2)C(=O)N(C)OC(CO)C4)c1` (stereo not drawn) [Compound 002, 4-(hydroxymethyl)-2-methyl-1-oxo-N-(m-tolyl)-1,4,5,8,9,11-hexahydropyrido[4′,3′:3,4]pyrazolo[5,1-d][1,2,5]oxadiazepine-10(2H)-carboxamide] was tested. Which EC50 did it give?
Answer: 1 to 100 nM

Question: `CN1OC(CO)Cn2nc3c(c2C1=O)CN(C(=O)Nc1ccnc(Cl)c1F)CC3` (stereo not drawn) [Compound 003, N-(2-chloro-3-fluoropyridin-4-yl)-4-(hydroxymethyl)-2-methyl-1-oxo-1,4,5,8,9,11-hexahydropyrido[4′,3′:3,4]pyrazolo[5,1-d][1,2,5]oxadiazepine-10(2H)-carboxamide] was tested. Which EC50 did it give?
Answer: 100 to 500 nM

Question: With `CN1OC(CO)Cn2nc3c(c2C1=O)CN(C(=O)Nc1cccc(Br)c1F)CC3` (stereo not drawn) [Compound 004, N-(3-bromo-2-fluorophenyl)-4-(hydroxymethyl)-2-methyl-1-oxo-1,4,5,8,9,11-hexahydropyrido[4′,3′:3,4]pyrazolo[5,1-d][1,2,5]oxadiazepine-10(2H)-carboxamide] as the compound, how does the EC50 read?
Answer: 1 to 100 nM

Question: With `CN1OC(CO)Cn2nc3c(c2C1=O)CN(C(=O)Nc1ccc(F)c(F)c1)CC3` (stereo not drawn) [Compound 005, N-(3,4-difluorophenyl)-4-(hydroxymethyl)-2-methyl-1-oxo-1,4,5,8,9,11-hexahydropyrido[4′,3′:3,4]pyrazolo[5,1-d][1,2,5]oxadiazepine-10(2H)-carboxamide] as the compound, how does the EC50 read?
Answer: 1 to 100 nM

Question: How did the EC50 turn out when `CN1OC(CO)Cn2nc3c(c2C1=O)CN(C(=O)Nc1cc(F)c(F)c(F)c1)CC3` (stereo not drawn) [Compound 006, 4-(hydroxymethyl)-2-methyl-1-oxo-N-(3,4,5-trifluorophenyl)-1,4,5,8,9,11-hexahydropyrido[4′,3′:3,4]pyrazolo[5,1-d][1,2,5]oxadiazepine-10(2H)-carboxamide] was run?
Answer: 1 to 100 nM

Question: Which EC50 does the source give for `CN1OC(CO)Cn2nc3c(c2C1=O)CN(C(=O)Nc1ccc(F)c(Cl)c1F)CC3` (stereo not drawn) [Compound 007, N-(3-chloro-2,4-difluorophenyl)-4-(hydroxymethyl)-2-methyl-1-oxo-1,4,5,8,9,11-hexahydropyrido[4′,3′:3,4]pyrazolo[5,1-d][1,2,5]oxadiazepine-10(2H)-carboxamide] here?
Answer: 1 to 100 nM

Question: Which EC50 does the source give for `CN1OC(CO)Cn2nc3c(c2C1=O)CN(C(=O)Nc1cccc(C(F)(F)F)c1)CC3` (stereo not drawn) [Compound 008, 4-(hydroxymethyl)-2-methyl-1-oxo-N-(3-(trifluoromethyl)phenyl)-1,4,5,8,9,11-hexahydropyrido[4′,3′:3,4]pyrazolo[5,1-d][1,2,5]oxadiazepine-10(2H)-carboxamide] here?
Answer: 1 to 100 nM

Question: With `CCc1cccc(NC(=O)N2CCc3nn4c(c3C2)C(=O)N(C)OC(CO)C4)c1` (stereo not drawn) [Compound 009, N-(3-ethylphenyl)-4-(hydroxymethyl)-2-methyl-1-oxo-1,4,5,8,9,11-hexahydropyrido[4′,3′:3,4]pyrazolo[5,1-d][1,2,5]oxadiazepine-10(2H)-carboxamide] as the compound, how does the EC50 read?
Answer: 1 to 100 nM

Question: With `CN1OC(CO)Cn2nc3c(c2C1=O)CN(C(=O)Nc1ccc(F)c(Br)c1F)CC3` (stereo not drawn) [Compound 010, N-(3-bromo-2,4-difluorophenyl)-4-(hydroxymethyl)-2-methyl-1-oxo-1,4,5,8,9,11-hexahydropyrido[4′,3′:3,4]pyrazolo[5,1-d][1,2,5]oxadiazepine-10(2H)-carboxamide] as the compound, how does the EC50 read?
Answer: 1 to 100 nM

Question: How did the EC50 turn out when `CN1OC(CO)Cn2nc3c(c2C1=O)CN(C(=O)Nc1ccc(Cl)c(Cl)c1)CC3` (stereo not drawn) [Compound 012, N-(3,4-dichlorophenyl)-4-(hydroxymethyl)-2-methyl-1-oxo-1,4,5,8,9,11-hexahydropyrido[4′,3′:3,4]pyrazolo[5,1-d][1,2,5]oxadiazepine-10(2H)-carboxamide] was run?
Answer: 1 to 100 nM

Question: With `CN1OC(CO)Cn2nc3c(c2C1=O)CN(C(=O)Nc1cc(Cl)c(F)cc1F)CC3` (stereo not drawn) [Compound 013, N-(5-chloro-2,4-difluorophenyl)-4-(hydroxymethyl)-2-methyl-1-oxo-1,4,5,8,9,11-hexahydropyrido[4′,3′:3,4]pyrazolo[5,1-d][1,2,5]oxadiazepine-10(2H)-carboxamide] as the compound, how does the EC50 read?
Answer: 1 to 100 nM

Question: For `CN1OC(CO)Cn2nc3c(c2C1=O)CN(C(=O)Nc1cc(Br)c(F)cc1F)CC3` (stereo not drawn) [Compound 014, N-(5-bromo-2,4-difluorophenyl)-4-(hydroxymethyl)-2-methyl-1-oxo-1,4,5,8,9,11-hexahydropyrido[4′,3′:3,4]pyrazolo[5,1-d][1,2,5]oxadiazepine-10(2H)-carboxamide], which EC50 is on record?
Answer: 1 to 100 nM

Question: Which EC50 does the source give for `CN1OC(CO)Cn2nc3c(c2C1=O)CN(C(=O)Nc1cc(F)c(F)c(Br)c1)CC3` (stereo not drawn) [Compound 015, N-(3-bromo-4,5-difluorophenyl)-4-(hydroxymethyl)-2-methyl-1-oxo-1,4,5,8,9,11-hexahydropyrido[4′,3′:3,4]pyrazolo[5,1-d][1,2,5]oxadiazepine-10(2H)-carboxamide] here?
Answer: 1 to 100 nM

Question: Which EC50 does the source give for `Cc1ccc(C)c(NC(=O)N2CCc3nn4c(c3C2)C(=O)N(C)OC(CO)C4)c1` (stereo not drawn) [Compound 016, N-(2,5-dimethylphenyl)-4-(hydroxymethyl)-2-methyl-1-oxo-1,4,5,8,9,11-hexahydropyrido[4′,3′:3,4]pyrazolo[5,1-d][1,2,5]oxadiazepine-10(2H)-carboxamide] here?
Answer: 1 to 100 nM

Question: How did the EC50 turn out when `Cc1ccc(Br)cc1NC(=O)N1CCc2nn3c(c2C1)C(=O)N(C)OC(CO)C3` (stereo not drawn) [Compound 017, N-(5-bromo-2-methylphenyl)-4-(hydroxymethyl)-2-methyl-1-oxo-1,4,5,8,9,11-hexahydropyrido[4′,3′:3,4]pyrazolo[5,1-d][1,2,5]oxadiazepine-10(2H)-carboxamide] was run?
Answer: 1 to 100 nM

Question: `Cc1cc(F)c(Br)cc1NC(=O)N1CCc2nn3c(c2C1)C(=O)N(C)OC(CO)C3` (stereo not drawn) [Compound 018, N-(5-bromo-4-fluoro-2-methylphenyl)-4-(hydroxymethyl)-2-methyl-1-oxo-1,4,5,8,9,11-hexahydropyrido[4′,3′:3,4]pyrazolo[5,1-d][1,2,5]oxadiazepine-10(2H)-carboxamide] was tested. Which EC50 did it give?
Answer: 1 to 100 nM

Question: Which EC50 does the source give for `CC1CCCC(NC(=O)N2CCc3nn4c(c3C2)C(=O)N(C)OC(CO)C4)C1` (stereo not drawn) [Compound 019, 4-(hydroxymethyl)-2-methyl-N-(3-methylcyclohexyl)-1-oxo-1,4,5,8,9,11-hexahydropyrido[4′,3′:3,4]pyrazolo[5,1-d][1,2,5]oxadiazepine-10(2H)-carboxamide] here?
Answer: 500 to 1000 nM

Question: With `CN1OC(CO)Cn2nc3c(c2C1=O)CN(C(=O)Nc1cccc(I)c1)CC3` (stereo not drawn) [Compound 020, 4-(hydroxymethyl)-N-(3-iodophenyl)-2-methyl-1-oxo-1,4,5,8,9,11-hexahydropyrido[4′,3′:3,4]pyrazolo[5,1-d][1,2,5]oxadiazepine-10(2H)-carboxamide] as the compound, how does the EC50 read?
Answer: 1 to 100 nM

Question: `CN1OC(CO)Cn2nc3c(c2C1=O)CN(C(=O)Nc1cccc(C(F)F)c1)CC3` (stereo not drawn) [Compound 021, N-(3-(difluoromethyl)phenyl)-4-(hydroxymethyl)-2-methyl-1-oxo-1,4,5,8,9,11-hexahydropyrido[4′,3′:3,4]pyrazolo[5,1-d][1,2,5]oxadiazepine-10(2H)-carboxamide] was tested. Which EC50 did it give?
Answer: 1 to 100 nM

Question: Which EC50 does the source give for `CN1OC(CO)Cn2nc3c(c2C1=O)CN(C(=O)Nc1cc(Cl)c(F)c(C(F)(F)F)c1)CC3` (stereo not drawn) [Compound 022, N-(3-chloro-4-fluoro-5-(trifluoromethyl)phenyl)-4-(hydroxymethyl)-2-methyl-1-oxo-1,4,5,8,9,11-hexahydropyrido[4′,3′:3,4]pyrazolo[5,1-d][1,2,5]oxadiazepine-10(2H)-carboxamide] here?
Answer: 1 to 100 nM

Question: How did the EC50 turn out when `CN1OC(CO)Cn2nc3c(c2C1=O)CN(C(=O)Nc1ccc(F)c(Cl)c1Cl)CC3` (stereo not drawn) [Compound 023, N-(2,3-dichloro-4-fluorophenyl)-4-(hydroxymethyl)-2-methyl-1-oxo-1,4,5,8,9,11-hexahydropyrido[4′,3′:3,4]pyrazolo[5,1-d][1,2,5]oxadiazepine-10(2H)-carboxamide] was run?
Answer: 1 to 100 nM

Question: For `CN1OC(CO)Cn2nc3c(c2C1=O)CN(C(=O)Nc1ccc(Cl)c(Cl)c1F)CC3` (stereo not drawn) [Compound 024, N-(3,4-dichloro-2-fluorophenyl)-4-(hydroxymethyl)-2-methyl-1-oxo-1,4,5,8,9,11-hexahydropyrido[4′,3′:3,4]pyrazolo[5,1-d][1,2,5]oxadiazepine-10(2H)-carboxamide], which EC50 is on record?
Answer: 1 to 100 nM

Question: `CN1OC(CO)Cn2nc3c(c2C1=O)CN(C(=O)Nc1ccc(Cl)c(C(F)(F)F)c1)CC3` (stereo not drawn) [Compound 025, N-(4-chloro-3-(trifluoromethyl)phenyl)-4-(hydroxymethyl)-2-methyl-1-oxo-1,4,5,8,9,11-hexahydropyrido[4′,3′:3,4]pyrazolo[5,1-d][1,2,5]oxadiazepine-10(2H)-carboxamide] was tested. Which EC50 did it give?
Answer: 1 to 100 nM

Question: With `Cc1ccc(NC(=O)N2CCc3nn4c(c3C2)C(=O)N(C)OC(CO)C4)cc1Cl` (stereo not drawn) [Compound 026, N-(3-chloro-4-methylphenyl)-4-(hydroxymethyl)-2-methyl-1-oxo-1,4,5,8,9,11-hexahydropyrido[4′,3′:3,4]pyrazolo[5,1-d][1,2,5]oxadiazepine-10(2H)-carboxamide] as the compound, how does the EC50 read?
Answer: 1 to 100 nM
